In patent US10315994B2, “Photostable compounds, absorbing compounds and uses thereof” (Commonwealth Scientific and Industrial Research Organisation, priority 2015, dated 2019):

Key:
Format in all cases: physicochemical
[1] = Photostability of thin films exposed to xenon arc lamp; conditions: for % λmax (% of original absorbance remaining): absorbance at λmax, irradiated vs unirradiated; for % λmax (% of original absorbance remaining) / % abs total (% of original absorbance remaining): xenon arc lamp 1 hour, thin film; for % abs total (% of original absorbance remaining): sum of absorbance 290-400 nm
Description: 1 mL of a 3% solution of the test compound (30 mg of test compound in 1 mL solvent) was prepared in a solvent mix made up of 50% EtOH and 25% capric/caprylic triglyceride and 25% C12-C15 alkyl benzoate. 50 μL of this solution (containing 1.5 mg of test compound) was added carefully to the centre of a glass microscope slide and the volatile components left to evaporate in the dark for at least 3 hours to give a liquid film. […] The irradiation was performed in a fume cupboard where the air flow was sufficient to keep sample T<30° C. One hour's exposure represented a calculated radiation dose (using meter) of approximately 100 MED.
In order to calculate the photostability of the test compounds, the exposed slides were placed in a beaker and rinsed with 2×5 mL EtOH, 1×5 mL MeOH. The combined washings were then added to a 100 mL volumetric flask and made up to 100 mL total volume with methanol. The UV absorbance was then measured in a 10 mm cuvette. The percent stability is measured as the ratio of absorbance at λmax for the irradiated sample compared to the unirradiated sample. As a further measure, a comparison of the sum of the absorbance in the 290-400 nm range was calculated.
The thin films are a good surrogate for testing the stability of a candidate in a sunscreen formulation as they use cosmetic emollients as solvent and are formed at cosmetically relevant concentrations.

[2] = UV/visible absorbance characteristics (λmax, λcrit, ε, E 1%,1 cm); conditions: for ε: in M-1 cm-1 (unit assumed); for Peak point of absorbance curve (figure legend): unirradiated control, FIGS. 3-5
[3] = Solubility in sunscreen formulation / 3% solution in EtOH:capric/caprylic triglyceride:C12-C15 alkyl benzoate; conditions: for Solubility in standard commercial sunscreen formulations: e.g. 3% solution in 2:1:1 EtOH:capric/caprylic triglyceride:C12-C15 alkyl benzoate
Description: In one embodiment, the compounds may provide for improved solubility or stability in standard compositions, including sunscreen compositions. […] Such solubility may be measured by generating, for example, a 3% solution of the relevant compound in 2:1:1 EtOH:capric/caprylic triglyceride:C12-C15 alkyl benzoate.
1 mL of a 3% solution of the test compound (30 mg of test compound in 1 mL solvent) was prepared in a solvent mix made up of 50% EtOH and 25% capric/caprylic triglyceride and 25% C12-C15 alkyl benzoate. 50 μL of this solution (containing 1.5 mg of test compound) was added carefully to the centre of a glass microscope slide and the volatile components left to evaporate in the dark for at least 3 hours to give a liquid film. The prepared films were then exposed for 1 hour to an Eimac 150 W xenon arc lamp filtered through Pyrex (15 Amp supply current, samples 19 cm from the lamp) previously allowed to warm up for 15 minutes prior to sample exposure. The irradiation was performed in a fume cupboard where the air flow was sufficient to keep sample T<30° C. One hour's exposure represented a calculated radiation dose (using meter) of approximately 100 MED.

CCCCC(CC)CN(c1ccc(C(=O)C2=CN(C(C)(C)C)CCC2(C)C)cc1)c1ccc(C(=O)C2=CN(C(C)(C)C)CCC2(C)C)cc1 (stereo not drawn) [Compound 136]
% λmax (% of original absorbance remaining) [1]: 49%
Photostability, % remaining after irradiation ([1]; exposure to the lamp for 1 h): 49%
% abs total (% of original absorbance remaining) [1]: 56%
λmax ([2]; Table 1): ~340 nm

CC1(C)CCN(C(C)(C)C)C=C1C(=O)C(Cl)(Cl)Cl [Compound 169]
Fate under irradiation [1]: effectively destroyed
Photostability (%) ([1]; Table 6): 5%
E (1%, 1 cm) ([2]; Table 6): 497
λcrit ([2]; Table 6): 361 nm
λmax ([2]; Table 6): 334 nm
ε ([2]; Table 6): 16618

CC(C)=CCCC(C)CC(=O)C1=CN(c2ccc(N3C=C(C(=O)CC(C)CCC=C(C)C)C(C)(C)CC3)cc2)CCC1(C)C (stereo not drawn) [Compound 155]
Solubility in standard commercial sunscreen formulations [3]: readily soluble

CCCCC(CC)COC(=O)CCC(=O)C1=CN(c2ccc(N3C=C(C(=O)CCC(=O)OCC(CC)CCCC)C(C)(C)CC3)cc2)CCC1(C)C (stereo not drawn) [Compound 153]
% λmax (% of original absorbance remaining) [1]: 52%
Solubility in standard commercial sunscreen formulations [3]: readily soluble

CC1(C)CCN(c2ccccc2)C=C1C(=O)C(F)(F)F [Compound 106]
% λmax (% of original absorbance remaining) [1]: 97%
% decomposed after irradiation ([1]; exposure to the lamp for 1 h): less than 5%
% abs total (% of original absorbance remaining) [1]: 97%
E (1%, 1 cm) ([2]; Table 1): 1033
λcrit ([2]; Table 1): 357 nm
λmax ([2]; Table 1): 335 nm
ε ([2]; Table 1): 29040
Peak point of absorbance curve (figure legend) [2]: approximately 335 nm

CCCOC(=O)CCC(=O)C1=CN(c2ccc(N3C=C(C(=O)CCC(=O)OCCC)C(C)(C)CC3)cc2)CCC1(C)C [Compound 152]
Solubility in standard commercial sunscreen formulations [3]: readily soluble

CC1(C)CCN(C(C)(C)C)C=C1C(=O)CCCCCCCCC(=O)C1=CN(C(C)(C)C)CCC1(C)C [Compound 54]
Photostability (%) ([1]; Table 6): 63%
% λmax (% of original absorbance remaining) [1]: 63%
% abs total (% of original absorbance remaining) [1]: 61%
E (1%, 1 cm) ([2]; Table 6): 1197
ε ([2]; Table 6): 59850
Peak point of absorbance curve (figure legend) [2]: approximately 310 nm

COc1ccc(N2C=C(C(=O)C(F)(F)F)C(C)(C)CC2)cc1N1C=C(C(=O)C(F)(F)F)C(C)(C)CC1
Photostability (%) ([1]; Table 5): 100%
E (1%, 1 cm) ([2]; Table 5): 1094
λcrit ([2]; Table 5): 364 nm
λmax ([2]; Table 5): 340 nm
ε ([2]; Table 5): 56720

CN(CCCCCCN(C)c1ccc(C(=O)C2=CN(C(C)(C)C)CCC2(C)C)cc1)c1ccc(C(=O)C2=CN(C(C)(C)C)CCC2(C)C)cc1 [Compound 109]
Photostability, % remaining after irradiation ([1]; exposure to the lamp for 1 h): 22%
λcrit ([2]; Table 1): 364 nm

CC1(C)CCN(c2ccc(N3C=C(C(=O)CCC(F)(F)F)C(C)(C)CC3)cc2)C=C1C(=O)CCC(F)(F)F [Compound 157]
% λmax (% of original absorbance remaining) [1]: 54%
Solubility in standard commercial sunscreen formulations [3]: readily soluble

CC1(C)CCN(c2cccc(N3C=C(C(=O)C(F)(F)F)C(C)(C)CC3)c2)C=C1C(=O)C(F)(F)F [Compound 160]
Photostability (% remains) ([1]; after 1.5 h irradiation): 99 (after 1.5 h, others = 1 h) %
E (1%, 1 cm) ([2]; Table 1): 1380
λcrit ([2]; Table 1): 364 nm
λmax ([2]; Table 1): 346 nm
ε ([2]; Table 1): 67344
E (1%, 1 cm) ([2]; Table 4): 1380
ε ([2]; Table 4): 67344

CC1(C)CCN(C(C)(C)C)C=C1C(=O)C(F)(F)F [Compound 98]
Photostability (%) ([1]; Table 6): 89%
% λmax (% of original absorbance remaining) [1]: 88%
Photostability, % remaining after irradiation ([1]; exposure to the lamp for 1 h): 88%
% abs total (% of original absorbance remaining) [1]: 84%
E (1%, 1 cm) ([2]; Table 1): 1380
λcrit ([2]; Table 1): 331 nm
λmax ([2]; Table 1): 315 nm
ε ([2]; Table 1): 36298
E (1%, 1 cm) ([2]; Table 6): 1380
λcrit ([2]; Table 6): 331 nm
λmax ([2]; Table 6): 315 nm
ε ([2]; Table 6): 36298
Peak point of absorbance curve (figure legend) [2]: approximately 320 nm

CC1(C)CCN(C(C)(C)C)C=C1C(=O)C(F)(F)C(F)(F)C(F)(F)C(=O)C1=CN(C(C)(C)C)CCC1(C)C [Compound 168]
E (1%, 1 cm) ([2]; Table 6): 1177
λcrit ([2]; Table 6): 337 nm
λmax ([2]; Table 6): 317 nm
ε ([2]; Table 6): 63346
Solubility for determination of photostability ([3]; solvent mix of the photostability method): not sufficiently soluble

CC1(C)CCN(C(C)(C)C)C=C1C(=O)C(Br)(Br)Br [drawing 125]
Photostability (%) ([1]; Table 5): 13%
E (1%, 1 cm) ([2]; Table 5): 321
λcrit ([2]; Table 5): 361 nm
λmax ([2]; Table 5): 330 nm
ε ([2]; Table 5): 14203

CC(F)(F)C(=O)C1=CN(C(C)(C)C)CCC1(C)C
Photostability (%) ([1]; Table 5): 49%
E (1%, 1 cm) ([2]; Table 5): 1285
λcrit ([2]; Table 5): 331 nm
λmax ([2]; Table 5): 314 nm
ε ([2]; Table 5): 33288

CC(C)=CCCC(C)CC(=O)C1=CN(c2ccc(N3C=C(C(=O)CC(C)CCC=C(C)C)C(C)(C)CC3)cc2)CCC1(C)C (stereo not drawn) [Compound 154]
Solubility in standard commercial sunscreen formulations [3]: readily soluble

CC1(C)CCN(C(C)(C)C)C=C1C(=O)C(F)F
Photostability (%) ([1]; Table 5): 43%
E (1%, 1 cm) ([2]; Table 5): 1371
λcrit ([2]; Table 5): 331 nm
λmax ([2]; Table 5): 313 nm
ε ([2]; Table 5): 30868

CC1(C)CCN(c2cccc(N3C=C(C(=O)C(F)(F)C(F)(F)C(F)(F)F)C(C)(C)CC3)c2)C=C1C(=O)C(F)(F)C(F)(F)C(F)(F)F [Compound 159]
Photostability (% remains) ([1]; 1 h irradiation): 91%
E (1%, 1 cm) ([2]; Table 1): 875
λcrit ([2]; Table 1): 366 nm
λmax ([2]; Table 1): 348 nm
ε ([2]; Table 1): 60200
E (1%, 1 cm) ([2]; Table 4): 875
ε ([2]; Table 4): 60200

CC1(C)CCN(C(C)(C)C)C=C1C(=O)C(Cl)(Cl)Cl [drawing 124]
Photostability (%) ([1]; Table 5): 5%
E (1%, 1 cm) ([2]; Table 5): 497
λcrit ([2]; Table 5): 361 nm
λmax ([2]; Table 5): 334 nm
ε ([2]; Table 5): 16618
